Source: ChEMBL document CHEMBL1201862, “PubChem BioAssay data set” (2004)
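Exposure lasted 48 hours, with cells grown in 96-well plates and compounds tested at five concentrations. Abbreviation: GI50, concentration required for 50% inhibition of growth.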 Active and inactive are the calls of the source. Cut-off read from the data, not from the text of the source: active = GI50 up to about 1.1 µM and inactive = higher.

How the values were obtained:
Assay in all cases: NCI tumour cell line growth inhibition, 48 h
LXFL 529 = system: LXFL 529
786-0 = system: 786-0
MDA-N = system: MDA-N
BT-549 = system: BT-549
DU-145 = system: DU-145
Hs-578T = system: Hs-578T
PC-3 = system: PC-3
T47D = system: T47D

Measured: GI50

CCOC(=O)C1=C(C)N2CCCOC2(C)C(C(=O)OC)C1c1cccc([N+](=O)[O-])c1 (stereo not given)
inactive: LXFL 529 45.7 µM

CCOC(=O)c1ccc(C)c(/N=N/N(C)C)c1
inactive: 786-0 > 100 µM

COc1cccc(N2C(Cl)C(=O)C2c2c[nH]c3ccccc23)c1 (stereo not given)
inactive: LXFL 529 > 100 µM

CCOC(=O)Cn1c(=O)c(C)cn(COCCO)c1=O
inactive: MDA-N > 100 µM | BT-549 > 100 µM | DU-145 > 100 µM | Hs-578T > 100 µM | PC-3 > 100 µM | T47D > 100 µM

CCCCS(=N)(=O)CC[C@H](N)C(=O)O (stereo not given in full) [BUTHIONINE SULFOXIME]
inactive: MDA-N > 10000 µM | BT-549 > 5000 µM | DU-145 > 5000 µM | Hs-578T > 2810 µM | PC-3 > 5000 µM | T47D > 5000 µM
